We go through 13 compounds from ChEMBL document CHEMBL6074688, “Discovery of a Novel Mutant-Selective Epidermal Growth Factor Receptor Inhibitor Using an In Silico Enabled Drug Discovery Platform” (J Med Chem, 2024).

Series [1] deals with T1, CYP3A4/5 (Homo sapiens, UniProt P08684+P20815). In words: Time dependent inhibition of CYP3A4/5 (unknown origin) assessed as remaining activity at 30 uM relative to control. Format: protein assay. To be noted: read-out: Activity.
In series [2] the target is T1, CYP3A4/5. In words: Time dependent inhibition of CYP3A4/5 (unknown origin) at 30 uM measured after 30 mins relative to control. In kind it is protein assay. To be noted: read-out: TDI.
In series [3] the target is Epidermal growth factor receptor (Homo sapiens, UniProt P00533). Kind of series: Binding affinity to wild type EGFR (unknown origin) assessed as inhibition constant incubated for 30 mins in presence of ATP by Real-time fluorescence based analysis.
Series [4] deals with Epidermal growth factor receptor (Homo sapiens, UniProt P00533, C797S/L858R/T790M). In words: Binding affinity to EGFR L858R/T790M/C797S mutant (unknown origin) assessed as inhibition constant incubated for 30 mins in presence of ATP by Real-time fluorescence based analysis.
Series [5] in a line: physchem. The following applies: octanol/water.
The target in series [6] is T1, CYP3A4/5. Kind of series: Reversible inhibition of CYP3A4/5 (unknown origin) at 30 uM relative to control. Format: ADME, protein assay.
The target in series [7] is T1, CYP3A4/5. In words: Time dependent inhibition of CYP3A4/5 (unknown origin) in absence of NADPH. Format: ADME, protein assay.
Series [8] concerns the target T1, CYP3A4/5. In words: Time dependent inhibition of CYP3A4/5 (unknown origin) in presence of NADPH. Format: ADME, protein assay.
In series [9] the target is T1, CYP3A4/5. In words: Time dependent inhibition of CYP3A4/5 (unknown origin) at 30 uM measured after 10 mins relative to control. Format: ADME, protein assay. To be noted: read-out: TDI.

Epidermal growth factor receptor (Homo sapiens, UniProt P00533, C797S/L858R/T790M), sequence (P00533 25-1210 T790M/C797S/L858R limits assumed): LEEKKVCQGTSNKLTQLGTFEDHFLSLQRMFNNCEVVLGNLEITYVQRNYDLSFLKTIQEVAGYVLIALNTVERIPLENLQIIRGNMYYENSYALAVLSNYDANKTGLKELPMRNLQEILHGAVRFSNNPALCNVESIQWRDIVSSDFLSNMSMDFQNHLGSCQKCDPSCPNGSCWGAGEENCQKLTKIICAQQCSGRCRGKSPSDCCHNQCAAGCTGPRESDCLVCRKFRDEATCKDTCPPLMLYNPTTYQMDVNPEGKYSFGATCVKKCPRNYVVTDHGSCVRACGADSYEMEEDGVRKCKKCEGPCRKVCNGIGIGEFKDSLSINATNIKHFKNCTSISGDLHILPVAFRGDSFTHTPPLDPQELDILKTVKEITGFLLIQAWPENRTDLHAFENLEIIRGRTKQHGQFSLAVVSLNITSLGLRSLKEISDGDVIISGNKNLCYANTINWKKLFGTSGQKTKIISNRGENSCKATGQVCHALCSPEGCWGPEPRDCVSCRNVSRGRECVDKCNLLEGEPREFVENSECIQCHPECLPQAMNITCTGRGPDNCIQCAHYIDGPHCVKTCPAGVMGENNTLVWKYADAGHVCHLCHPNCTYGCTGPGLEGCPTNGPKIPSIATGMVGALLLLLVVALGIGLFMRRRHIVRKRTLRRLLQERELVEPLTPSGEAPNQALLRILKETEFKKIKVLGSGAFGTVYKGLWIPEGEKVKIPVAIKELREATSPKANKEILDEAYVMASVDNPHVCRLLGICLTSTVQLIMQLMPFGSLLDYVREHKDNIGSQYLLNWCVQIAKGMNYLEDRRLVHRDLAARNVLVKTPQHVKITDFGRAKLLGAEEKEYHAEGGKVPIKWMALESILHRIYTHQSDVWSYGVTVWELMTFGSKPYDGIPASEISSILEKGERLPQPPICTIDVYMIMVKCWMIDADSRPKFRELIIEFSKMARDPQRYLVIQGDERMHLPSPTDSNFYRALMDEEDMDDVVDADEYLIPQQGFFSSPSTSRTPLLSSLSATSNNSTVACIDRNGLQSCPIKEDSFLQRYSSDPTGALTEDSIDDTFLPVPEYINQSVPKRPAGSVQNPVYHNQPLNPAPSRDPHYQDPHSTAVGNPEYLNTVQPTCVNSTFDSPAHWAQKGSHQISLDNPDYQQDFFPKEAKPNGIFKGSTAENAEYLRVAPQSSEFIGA
Epidermal growth factor receptor (Homo sapiens, UniProt P00533), sequence (P00533 whole entry): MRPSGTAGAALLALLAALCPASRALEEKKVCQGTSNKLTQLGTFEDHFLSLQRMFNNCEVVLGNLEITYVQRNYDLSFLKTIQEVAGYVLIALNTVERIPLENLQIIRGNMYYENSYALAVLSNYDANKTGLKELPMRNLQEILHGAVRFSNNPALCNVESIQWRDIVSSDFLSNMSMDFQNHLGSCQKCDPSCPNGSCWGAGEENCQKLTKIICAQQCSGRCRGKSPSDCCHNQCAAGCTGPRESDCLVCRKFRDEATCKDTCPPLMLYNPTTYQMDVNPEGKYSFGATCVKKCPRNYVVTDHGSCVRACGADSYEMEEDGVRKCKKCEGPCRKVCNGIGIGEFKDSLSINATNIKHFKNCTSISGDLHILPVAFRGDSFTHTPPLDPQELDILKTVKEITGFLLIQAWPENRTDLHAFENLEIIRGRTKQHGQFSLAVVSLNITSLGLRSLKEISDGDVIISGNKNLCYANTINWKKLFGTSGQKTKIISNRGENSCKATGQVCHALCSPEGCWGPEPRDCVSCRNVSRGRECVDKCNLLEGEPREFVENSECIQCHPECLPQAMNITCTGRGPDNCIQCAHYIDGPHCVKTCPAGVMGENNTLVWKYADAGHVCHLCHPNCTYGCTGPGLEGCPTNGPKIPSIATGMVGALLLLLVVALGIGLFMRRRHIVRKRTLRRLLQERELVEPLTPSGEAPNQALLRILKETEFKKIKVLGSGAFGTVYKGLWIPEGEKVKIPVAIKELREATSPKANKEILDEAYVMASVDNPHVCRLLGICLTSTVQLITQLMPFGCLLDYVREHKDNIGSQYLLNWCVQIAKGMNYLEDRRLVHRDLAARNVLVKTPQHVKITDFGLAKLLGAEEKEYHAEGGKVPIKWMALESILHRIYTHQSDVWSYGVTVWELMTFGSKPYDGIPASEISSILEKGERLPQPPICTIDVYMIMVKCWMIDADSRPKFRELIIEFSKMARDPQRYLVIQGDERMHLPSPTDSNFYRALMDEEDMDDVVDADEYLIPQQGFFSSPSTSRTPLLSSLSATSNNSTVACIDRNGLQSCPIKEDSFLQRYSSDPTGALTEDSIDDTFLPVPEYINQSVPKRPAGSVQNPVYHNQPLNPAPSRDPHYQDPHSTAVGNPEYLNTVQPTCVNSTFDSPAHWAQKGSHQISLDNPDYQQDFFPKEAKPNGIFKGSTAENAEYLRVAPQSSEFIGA

Take `CO[C@@H]1CCN(c2nccc(Nc3cc4n(C5CCC6(CC5)OCCO6)c(C#N)cn4n3)n2)C[C@@H]1F`: the activity at 30 µM in series [1] came out at 78%. In [2], the inhibition at 0.5 h, 30 µM was determined as 50%.
What is called Ki is the equilibrium dissociation constant of an inhibitor or competing ligand from its target. By logD is commonly meant the decadic logarithm of the distribution of all forms, ionised or not, between an organic phase and buffer at a given pH. With `Cc1cn2nc(Nc3ccnc(N4CC[C@@H](O)[C@@H](F)C4)n3)cc2n1C1C2CCCC1C2` (stereo partly drawn), the figures for the inhibition constant Ki in series [3] (read-out: Ki) and in series [4] were 1700 nM and 9.9 nM, respectively. Also, the logD at 3 h in series [5] came to 3.32.
As to `CCc1cn2nc(Nc3ccnc(N4CC[C@@H](OC)[C@@H](F)C4)n3)cc2n1C1CCC2(CC1)OCCO2`, in series [1], the activity at 30 µM came to 39%. Besides, in series [2], the inhibition at 0.5 h, 30 µM amounted to 34.9%.
Take `CCNC(=O)c1cn2nc(Nc3ccnc(N4CC[C@@H](OC)[C@@H](F)C4)n3)cc2n1C1CCC2(CC1)OCCO2`: the activity at 30 µM in series [1] stood at 98%. The inhibition at 0.5 h, 30 µM in [2] is 64%.
With `CCc1cn2nc(Nc3ccnc(N4CC[C@@H](OC)[C@@H](F)C4)n3)cc2n1[C@H]1CC[C@]2(CCN(C)C2=O)CC1`, in series [1], the activity at 30 µM turned out to be 65%. Besides, in series [2], the inhibition at 0.5 h, 30 µM was 55.8%.
Usually IC50 stands for the concentration that gives 50% inhibition. In turn, `CO[C@@H]1CCN(c2nccc(Nc3cc4n(C5CCC6(CC5)OCCO6)c(C)cn4n3)n2)C[C@@H]1F` registered an inhibition at 30 µM in series [6] of 66%. Besides, the activity at 30 µM in series [1] came to 57%. For the same compound, the inhibition at 0.5 h, 30 µM in [2] is 52.4%. The half-maximal inhibitory concentration (IC50) in [7] came out at 820 nM; in [8] it was 156000 nM. The inhibition at 10 min, 30 µM in [9] was determined as 41.2%.
For the compound `CN1CCC2(CCC(n3c(C(F)(F)F)cn4nc(Nc5ccnc(N6CC[C@@H](O)[C@@H](F)C6)n5)cc34)CC2)C1=O` (stereo partly drawn), the activity at 30 µM in [1] came out at 86%. Further, in [2], the inhibition at 0.5 h, 30 µM worked out at 34%. Also, the IC50 in [7] is 22000 nM; in series [8] it was more than 1400 nM.
`CO[C@@H]1CCN(c2nccc(Nc3cc4n(C5CCC6(CC5)OCCO6)c(C(=O)NCC5CCN(C)CC5)cn4n3)n2)C[C@@H]1F`: the activity at 30 µM in series [1] was more than 99%. Further, the inhibition at 0.5 h, 30 µM in series [2] came out at 24%.
With `CO[C@@H]1CCN(c2nccc(Nc3cc4n(C5CCC6(CC5)OCCO6)c(C(=O)NCC5CN(C)C5)cn4n3)n2)C[C@@H]1F`, the activity at 30 µM in series [1] is more than 99%. In series [2], the inhibition at 0.5 h, 30 µM was determined as 26%.
Consider `O[C@@H]1CCN(c2nccc(Nc3cc4n(C5CCC6(CC5)OCCO6)c(C(F)(F)F)cn4n3)n2)C[C@@H]1F`, for which, in series [1], the activity at 30 µM worked out at 25%. The inhibition at 0.5 h, 30 µM in series [2] was 8.3%. In addition, the 50% inhibitory concentration (IC50) turned out to be 5700 nM in series [7] and 2300 nM in series [8].
With `COC1CCN(c2nccc(Nc3cc4n(C5CC5)c(C)cn4n3)n2)CC1`, the inhibitory constant (Ki) entry was “Not_active” in [3] and 950 nM in series [4]. The compound also came in with a logD at 3 h in series [5] of 3.37.
Regarding `COC1CCN(c2nccc(Nc3cc4n(C5CCC(=O)CC5)c(C)cn4n3)n2)CC1`, the Ki result in [3] is “Not_active”; in series [4], 27 nM. In addition, the pH-dependent lipophilicity (logD) at 3 h in [5] is 2.27.
On to `COC1CCN(c2nccc(Nc3cc4n(C)c(C)cn4n3)n2)CC1`, for which the inhibition constant (Ki) entry was “Not_active” in series [3] and 6100 nM in series [4]. The logD at 3 h in series [5] was determined as 2.56.
